One test addresses mA2a/CHO (Mus musculus (Mouse), UniProt Q60613). The experiment in a line: cAMP inhibition assay in mA2a/CHO cells, 10 μM adenosine.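 Note: compounds preincubated 30 min at 37 °C before the adenosine challenge, then 30 min further stimulation, readout after 60 min detection reagent incubation at room temperature in 384-well plates.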 The conditions noted are these: read-out: cAMP & FLIPR IC50 (nM) mA2a. It is filed as cell-based.
A further test concerns the target hA2a/CHO (Homo sapiens (Human), UniProt P29274). As to the kind of experiment: cAMP inhibition assay in hA2a/CHO cells, 10 μM adenosine.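 Note: compounds added to cells 30 min ahead of adenosine, then a further 30 min at 37 °C with adenosine before cAMP detection.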 The conditions noted are these: read-out: cAMP & FLIPR IC50 (nM) hA2a. Type of test: cell-based.
Test [1] concerns the target hADORA1/CHO (hA1 expressing) cells (Homo sapiens (Human), UniProt P30542). As to the kind of experiment: cell-based. The conditions noted are these: FLIPR inhibition, 10 μM adenosine, read-out: cAMP & FLIPR IC50 (nM) hA1.
Procedure: hADORA1/CHO (hA1 expressing) cells (Genscript) were plated at 1×10^4 cells/well into 384-well polystyrene plates one day before starting the experiment. On the day of experiment, the supernatant was discard and replaced with 40 μL of dye (FLIPR calcium 5 Assay Kit) per well and the plates were incubated for 60 mins at 37° C. plus 5% CO2. Then testing compounds were added at different concentrations for FLIPR™ inhibition assay. After a 400s incubation with compound, 10 μM adenosine was added into the cells, and the signal was captured by FLIPR.
The next test has as its target hA3/CHO (Homo sapiens (Human), UniProt P0DMS8). The experiment in a line: cell-based. The protocol: hA2a/CHO, hA2b/CHO, hA3/CHO and mA2a/CHO (Genscript) were plated at 5×10^3 cells/well into 384-well polystyrene plates at the day of experiment. Compounds were pre-incubated with cells for 30 min at 37° C., 5% CO2. Then 10 μM adenosine was added to the cells and incubated for 30 min at 37° C., 5% CO2. Detection reagent (CISBIO) was added and the plates were incubated for 60 min at room temperature. The signal was captured by Envision.

The target of another test is hA2b/CHO (Homo sapiens (Human), UniProt P29275). The experiment in a line: cAMP inhibition assay in hA2b/CHO cells, 10 μM adenosine.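 Note: cells exposed to compound 30 min at 37 °C, then stimulated with adenosine a further 30 min, cAMP read after 60 min at room temperature.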 It is filed as cell-based. The conditions noted are these: read-out: cAMP & FLIPR IC50 (nM) hA2b.
Sequence of hA2b/CHO (P29275 whole entry): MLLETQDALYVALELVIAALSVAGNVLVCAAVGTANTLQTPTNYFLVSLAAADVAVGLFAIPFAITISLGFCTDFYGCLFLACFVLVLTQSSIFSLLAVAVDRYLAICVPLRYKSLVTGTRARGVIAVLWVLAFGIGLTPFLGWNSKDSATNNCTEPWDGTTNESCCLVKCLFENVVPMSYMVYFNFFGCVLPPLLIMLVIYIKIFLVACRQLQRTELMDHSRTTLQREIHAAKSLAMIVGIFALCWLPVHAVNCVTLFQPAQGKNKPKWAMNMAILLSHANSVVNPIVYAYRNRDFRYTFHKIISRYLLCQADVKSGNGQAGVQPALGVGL
A further test has as its target hA2a (Homo sapiens (Human), UniProt P29274). The experiment in a line: Radioligand binding to hA2a membrane with [3H]-CGS21680. From the text:
The empty boxes in the tables below indicate data not collected yet.

Setting [2] is: read-out: Binding Affinity (IC50 nM) hA2a.
[3] abbreviates: Binding Affinity (IC50 nM) hA2a.

Structures are written as SMILES. Where two headings read alike, the source gives them in different places.

For 19 compounds, IC50 results are on record in US10898481B2 (priority 2018, dated 2021).

Sequence of mA2a/CHO (Q60613 whole entry): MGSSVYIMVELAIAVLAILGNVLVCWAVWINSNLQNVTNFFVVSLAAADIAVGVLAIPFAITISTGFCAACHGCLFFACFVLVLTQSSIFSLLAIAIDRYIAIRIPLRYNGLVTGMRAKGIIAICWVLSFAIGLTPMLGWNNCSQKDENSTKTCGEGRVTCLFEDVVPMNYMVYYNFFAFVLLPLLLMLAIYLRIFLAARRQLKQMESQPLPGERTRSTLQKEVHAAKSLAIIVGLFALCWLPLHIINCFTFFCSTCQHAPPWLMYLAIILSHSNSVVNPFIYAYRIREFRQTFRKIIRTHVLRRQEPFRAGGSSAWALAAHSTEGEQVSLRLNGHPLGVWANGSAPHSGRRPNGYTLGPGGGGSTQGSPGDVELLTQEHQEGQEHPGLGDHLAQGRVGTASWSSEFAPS
Sequence of hA3/CHO (P0DMS8 whole entry): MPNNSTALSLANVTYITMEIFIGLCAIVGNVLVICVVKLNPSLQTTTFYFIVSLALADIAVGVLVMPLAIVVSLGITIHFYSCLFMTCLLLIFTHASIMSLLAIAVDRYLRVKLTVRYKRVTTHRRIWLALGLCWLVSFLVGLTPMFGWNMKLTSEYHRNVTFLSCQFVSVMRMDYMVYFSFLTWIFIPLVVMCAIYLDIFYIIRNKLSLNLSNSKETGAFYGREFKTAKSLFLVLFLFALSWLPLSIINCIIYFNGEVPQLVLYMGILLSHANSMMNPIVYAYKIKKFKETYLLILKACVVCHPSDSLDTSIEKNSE
Sequence of hADORA1/CHO (hA1 expressing) cells (P30542 whole entry): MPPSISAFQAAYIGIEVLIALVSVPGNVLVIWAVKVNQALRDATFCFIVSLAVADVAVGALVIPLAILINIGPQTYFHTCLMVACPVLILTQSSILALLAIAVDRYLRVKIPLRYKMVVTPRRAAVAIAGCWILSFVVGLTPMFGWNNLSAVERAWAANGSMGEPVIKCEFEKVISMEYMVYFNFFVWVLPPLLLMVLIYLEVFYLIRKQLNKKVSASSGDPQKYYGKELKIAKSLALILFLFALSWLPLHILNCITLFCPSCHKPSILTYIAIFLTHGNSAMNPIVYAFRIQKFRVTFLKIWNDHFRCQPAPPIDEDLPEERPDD
Sequence of hA2a/CHO (P29274 whole entry): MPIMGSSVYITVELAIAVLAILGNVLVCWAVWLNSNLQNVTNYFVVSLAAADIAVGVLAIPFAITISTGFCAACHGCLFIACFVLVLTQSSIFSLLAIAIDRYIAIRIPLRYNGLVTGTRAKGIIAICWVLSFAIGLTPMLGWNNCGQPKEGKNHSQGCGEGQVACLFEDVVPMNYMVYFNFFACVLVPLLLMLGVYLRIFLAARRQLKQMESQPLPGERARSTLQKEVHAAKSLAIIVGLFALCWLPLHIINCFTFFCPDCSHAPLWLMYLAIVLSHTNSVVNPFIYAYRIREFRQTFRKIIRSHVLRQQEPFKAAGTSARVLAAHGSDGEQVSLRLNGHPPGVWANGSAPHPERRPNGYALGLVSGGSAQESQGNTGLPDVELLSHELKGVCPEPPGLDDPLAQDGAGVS
Sequence of hA2a (P29274 whole entry): as above

By IC50 is commonly meant the concentration at which inhibition is half-maximal. As to `Cn1cc(-c2nc(C(=O)NCc3ncccc3OC(F)(F)F)c(N)nc2-c2ncco2)ccc1=O` [Example 30, 3-amino-6-(1-methyl-6-oxo-1,6-dihydropyridin-3-yl)-5-(1,3-oxazol-2-yl)-N-[[3-(trifluoromethoxy)pyridin-2-yl]methyl]pyrazine-2-carboxamide], the IC50 at mA2a/CHO is 47 nM; at hA2a/CHO it was 45 nM; in test [1], 214 nM; on hA3/CHO, at least 10000 nM; at hA2b/CHO, 603 nM.
For the compound `Cn1cc(-c2nc(C(=O)NCc3cccc(N4CCC4)n3)c(N)nc2-c2ncco2)ccc1=O` [Example 26, 3-amino-N-[[6-(azetidin-1-yl)pyridin-2-yl]methyl]-6-(1-methyl-6-oxo-1,6-dihydropyridin-3-yl)-5-(1,3-oxazol-2-yl)pyrazine-2-carboxamide], the concentration for half-maximal inhibition (IC50) was 309 nM at mA2a/CHO; 108 nM on hA2a/CHO; 725 nM in test [1]; at least 10000 nM at hA3/CHO; at least 10000 nM on hA2b/CHO.
As for `Cn1nc(-c2nc(C(=O)NCc3c(F)cccc3F)c(N)nc2-c2ncco2)ccc1=O` [Example 37, 3-amino-N-(2,6-difluorobenzyl)-6-(1-methyl-6-oxo-1,6-dihydropyridazin-3-yl)-5-(oxazol-2-yl)pyrazine-2-carboxamide], the IC50 at mA2a/CHO amounted to 56 nM; at hA2a (setting [2]) it was 1 nM; on hA2a/CHO, 9.3 nM; in test [1] it was 28 nM; on hA2b/CHO, 95 nM.
As to `Cn1cc(-c2nc(C(=O)NCc3cccc(N4CCCC4)n3)c(N)nc2-c2ncco2)ccc1=O` [Example 28, 3-amino-6-(1-methyl-6-oxo-1,6-dihydropyridin-3-yl)-5-(1,3-oxazol-2-yl)-N-[[6-(pyrrolidin-1-yl)pyridin-2-yl]methyl]pyrazine-2-carboxamide], the IC50 was 160 nM on mA2a/CHO; 129 nM at hA2a/CHO; 4900 nM in test [1]; at least 10000 nM at hA3/CHO; at least 10000 nM on hA2b/CHO.
In the case of `CN(C)c1cccc(CNC(=O)c2nc(-c3ccc(=O)n(C)c3)c(-c3ncco3)nc2N)c1F` [Example 33, 3-amino-N-(3-(dimethylamino)-2-fluorobenzyl)-6-(1-methyl-6-oxo-1,6-dihydropyridin-3-yl)-5-(oxazol-2-yl)pyrazine-2-carboxamide], the half-maximal inhibitory concentration (IC50) at mA2a/CHO is 123 nM; at hA2a/CHO it was 56 nM; in test [1], 3030 nM; on hA3/CHO, at least 10000 nM; on hA2b/CHO it was at least 10000 nM.
With `Nc1nc(-c2ncco2)c(-c2ccc(=O)n(C(F)F)c2)nc1C(=O)NCc1ncccc1F` [Example 31, 3-amino-6-[1-(difluoromethyl)-6-oxo-1,6-dihydropyridin-3-yl]-N-[(3-fluoropyridin-2-yl)methyl]-5-(1,3-oxazol-2-yl)pyrazine-2-carboxamide], the IC50 was 75 nM on mA2a/CHO; 34 nM on hA2a/CHO; 35 nM in test [1]; at least 10000 nM against hA3/CHO; 164 nM on hA2b/CHO.
With `Cc1cc(-c2nc(C(=O)NCc3cccc(N(C)C)n3)c(N)nc2-c2ccc(F)cc2)cc(C)n1` [Example 9, 3-amino-N-[[6-(dimethylamino)pyridin-2-yl]methyl]-6-(2,6-dimethylpyridin-4-yl)-5-(4-fluorophenyl)pyrazine-2-carboxamide], the half-inhibitory concentration (IC50) is 25 nM on mA2a/CHO; 5.4 nM on hA2a/CHO; 1000 nM in test [1]; at least 10000 nM at hA3/CHO; at least 10000 nM at hA2b/CHO.
`CC(NC(=O)c1nc(-c2ccc(=O)n(C)c2)c(-c2ncco2)nc1N)c1c(F)cccc1F` (single isomer, unassigned) [Example 40, 3-amino-N-(1-(2,6-difluorophenyl)ethyl)-6-(1-methyl-6-oxo-1,6-dihydropyridin-3-yl)-5-(oxazol-2-yl)pyrazine-2-carboxamide]: the IC50 on mA2a/CHO came to 211 nM; at hA2a (setting [3]), 5.2 nM; on hA2a/CHO, 51 nM; in test [1], 10000 nM; at hA2b/CHO it was 1350 nM.
In the case of `Cc1cnc2ccc(-c3nc(C(=O)NCC4CCO4)c(N)nc3-c3ncco3)cn12` (single isomer, unassigned) [Example 135], the half-inhibitory concentration (IC50) was 23 nM on mA2a/CHO, 2 nM on hA2a (setting [3]), 2.3 nM on hA2a/CHO and 182 nM on hA2b/CHO.
The like results for `Cc1cnc2ccc(-c3nc(C(=O)NCC4CCO4)c(N)nc3-c3ncco3)cn12` (single isomer, unassigned) [Example 134] were, in that order, 77 nM, 5.5 nM, 4.3 nM and 314 nM.
As for `Nc1nc(-c2ncco2)c(-c2ccc(=O)n(CCO)c2)nc1C(=O)NCc1c(F)cccc1F` [Example 41, 3-amino-N-(2,6-difluorobenzyl)-6-(1-(2-hydroxyethyl)-6-oxo-1,6-dihydropyridin-3-yl)-5-(oxazol-2-yl)pyrazine-2-carboxamide], the IC50 at mA2a/CHO came to 13 nM; on hA2a (setting [2]), 3.3 nM; at hA2a/CHO, 1.6 nM; in test [1], 123 nM; at hA2b/CHO it was 38 nM.
`Cc1cnc2ccc(-c3nc(C(=O)N[C@@H]4CCN(C)C4)c(N)nc3-c3ccc(F)cc3)cn12` [Example 144, (R)-3-amino-5-(4-fluorophenyl)-6-(3-methylimidazo[1,2-a]pyridin-6-yl)-N-(1-methylpyrrolidin-3-yl)pyrazine-2-carboxamide]: the half-inhibitory concentration (IC50) on mA2a/CHO is 61 nM; on hA2a/CHO, 4.6 nM; in test [1], 10000 nM; at hA2b/CHO, 1410 nM.
The corresponding values for `COCCn1cc(-c2nc(C(=O)NCc3c(F)cccc3F)c(N)nc2-c2ncco2)ccc1=O` [Example 103, 3-amino-N-[(2,6-difluorophenyl)methyl]-6-[1-(2-methoxyethyl)-6-oxo-1,6-dihydropyridin-3-yl]-5-(1,3-oxazol-2-yl)pyrazine-2-carboxamide] are 16 nM, 38 nM, 272 nM and 2130 nM.
With `Cc1cnc2ccc(-c3nc(C(=O)NCC4CCCCO4)c(N)nc3-c3ncco3)cn12` (single isomer, unassigned; isomer 1) [Example 165, 3-amino-6-(3-methylimidazo[1,2-a]pyridin-6-yl)-5-(oxazol-2-yl)-N-((tetrahydro-2H-pyran-2-yl)methyl) pyrazine-2-carboxamide (isomer 1)], the IC50 on mA2a/CHO worked out at 1.42 nM; at hA2a/CHO, 0.24 nM; in test [1] it was 207 nM; on hA2b/CHO, 73 nM.
Take `CCc1cnn2ccc(-c3nc(C(=O)NC[C@H]4CCCN4C)c(N)nc3-c3ncco3)cc12` [Example 128, (R)-3-amino-6-(3-ethylpyrazolo[1,5-a]pyridin-5-yl)-N-((1-methylpyrrolidin-2-yl)methyl)-5-(oxazol-2-yl)pyrazine-2-carboxamide]: the IC50 on mA2a/CHO was 410 nM; at hA2a/CHO, 63 nM; in test [1], 10000 nM; at hA2b/CHO, at least 10000 nM.
Turning to `Cn1cc(-c2nc(C(=O)NCc3ncccc3OC(F)F)c(N)nc2-c2ccc(F)cc2)ccc1=O` [Example 58, 3-amino-N-((3-(difluoromethoxy)pyridin-2-yl)methyl)-5-(4-fluorophenyl)-6-(1-methyl-6-oxo-1,6-dihydropyridin-3-yl)pyrazine-2-carboxamide], the IC50 stood at 81 nM at mA2a/CHO, 19 nM on hA2a/CHO, 18 nM in test [1] and 62 nM at hA2b/CHO.
The corresponding values for `Cn1cnc2ccc(-c3nc(C(=O)NCc4ncccc4OCCO)c(N)nc3-c3ccc(F)cc3)cc21` [Example 113, 3-amino-5-(4-fluorophenyl)-N-[[3-(2-hydroxyethoxy)pyridin-2-yl]methyl]-6-(1-methyl-1H-1,3-benzodiazol-6-yl)pyrazine-2-carboxamide] are 1 nM, 0.4 nM, 70 nM and 68 nM.
`Nc1nc(-c2ncco2)c(-c2ccc(=O)n(CCCO)c2)nc1C(=O)NCc1c(F)cccc1F` [Example 102, 3-amino-N-[(2,6-difluorophenyl)methyl]-6-[1-(3-hydroxypropyl)-6-oxo-1,6-dihydropyridin-3-yl]-5-(1,3-oxazol-2-yl)pyrazine-2-carboxamide]: the IC50 on mA2a/CHO turned out to be 48 nM; on hA2a/CHO it was 9.9 nM; in test [1], 78 nM; on hA2b/CHO, 120 nM.
`Cc1cnc2ccc(-c3nc(C(=O)NCCn4cccn4)c(N)nc3-c3ncco3)cn12` [Example 158, N-(2-(1H-pyrazol-1-yl)ethyl)-3-amino-6-(3-methylimidazo[1,2-a]pyridin-6-yl)-5-(oxazol-2-yl)pyrazine-2-carboxamide]: the IC50 on mA2a/CHO is 3.46 nM; on hA2a/CHO it was 1.27 nM; in test [1], 756 nM; on hA2b/CHO, 167 nM.
